Reference: ChEMBL document CHEMBL3872232, “2-Azetidinones: Synthesis and biological evaluation as potential anti-breast cancer agents” (Eur J Med Chem, 2016)

What was measured:
[1] = Antiproliferative activity against human MCF7 cells after 48 hrs by MTT assay; format: functional, cell-based; settings: MCF7, 48 h
[2] = Antiproliferative activity against human MDA-MB-231 cells after 48 hrs by MTT assay; format: functional, cell-based; settings: MDA-MB-231, 48 h
[3] = Antiproliferative activity against human mammary epithelial cells after 48 hrs by MTT assay; format: cell-based, Epithelial cell
Homo sapiens [4] = species on record: Homo sapiens; assay: Inhibition of Akt in human MDA-MB-231 cells assessed as ratio of phosphorylated GSK-3beta to GAPDH expression level at 100 nM after 48 hrs by immunoblot analysis (reference value: 0.14 to 1.50); format: cell-based
Homo sapiens [5] = species on record: Homo sapiens; assay: Inhibition of Akt in human MDA-MB-231 cells assessed as ratio of phosphorylated Akt to GAPDH expression level at 100 nM after 48 hrs by immunoblot analysis (reference value: 0.33 to 0.81); format: cell-based
MDA-MB-231 [6] = assay: Effect on Cdk6 mRNA expression in human MDA-MB-231 cells assessed as ratio of Cdk6 to GAPDH expression level at 5 uM after 24 hrs by RT-PCR method (reference value: 1.37); format: functional
MDA-MB-231 [7] = assay: Effect on Cdk2 mRNA expression in human MDA-MB-231 cells assessed as ratio of Cdk2 to GAPDH expression level at 5 uM after 24 hrs by RT-PCR method (reference value: 0.26); format: functional
[8] = Cell cycle arrest in human MCF7 cells assessed as accumulation at sub-G1 phase at 5 uM after 24 hrs by propidium iodide staining based flow cytometry (reference value: 3.58%); format: functional
MDA-MB-231 [9] = assay: Inhibition of Akt in human MDA-MB-231 cells after 48 hrs by ELISA; format: cell-based
MDA-MB-231 [10] = assay: Effect on p53 gene expression in human MDA-MB-231 cells assessed as ratio of p53 to beta-actin expression level at 5 uM after 24 hrs by RT-PCR method (reference value: 0.22); format: functional
MCF7 [11] = assay: Induction of apoptosis in human MCF7 cells assessed as necrotic cells at 5 uM after 24 hrs by Annexin V-FITC/propidium iodide staining based flow cytometry (reference value: 3.7%); format: functional
[12] = Safety index, ratio of compound IC50 to colchicine IC50 for human mammary epithelial cells; format: ADME, cell-based, Epithelial cell; settings: read-out: Ratio IC50
Homo sapiens [13] = species on record: Homo sapiens; assay: Inhibition of Akt in human MDA-MB-231 cells assessed as ratio of phosphorylated Akt to GAPDH expression level at 5 uM after 48 hrs by immunoblot analysis (reference value: 0.33 to 0.81); format: cell-based
[14] = Cell cycle arrest in human MCF7 cells assessed as accumulation at G0/G1 phase at 5 uM after 24 hrs by propidium iodide staining based flow cytometry (reference value: 83.25%); format: functional
MDA-MB-231 [15] = assay: Effect on cyclin E mRNA expression in human MDA-MB-231 cells assessed as ratio of cyclin E to GAPDH expression level at 5 uM after 24 hrs by RT-PCR method (reference value: 0.13); format: functional
MDA-MB-231 [16] = assay: Effect on cyclin D1 mRNA expression in human MDA-MB-231 cells assessed as ratio of cyclin D1 to GAPDH expression level at 5 uM after 24 hrs by RT-PCR method (reference value: 0.71); format: functional
MDA-MB-231 [17] = assay: Induction of apoptosis in human MDA-MB-231 cells assessed as late apoptotic cells at 5 uM after 24 hrs by Annexin V-FITC/propidium iodide staining based flow cytometry (reference value: 1.8%); format: functional
[18] = Cell cycle arrest in human MCF7 cells assessed as accumulation at G2/M phase at 5 uM after 24 hrs by propidium iodide staining based flow cytometry (reference value: 9.29%); format: functional
MDA-MB-231 [19] = assay: Effect on p27 mRNA expression in human MDA-MB-231 cells assessed as ratio of p27 to GAPDH expression level at 5 uM after 24 hrs by RT-PCR method (reference value: 0.23); format: functional
MDA-MB-231 [20] = assay: Effect on Bid gene expression in human MDA-MB-231 cells assessed as ratio of Bid to beta-actin expression level at 5 uM after 24 hrs by RT-PCR method (reference value: 0.17); format: functional
Homo sapiens [21] = species on record: Homo sapiens; assay: Inhibition of Akt in human MDA-MB-231 cells assessed as ratio of phosphorylated Akt to GAPDH expression level at 2 uM after 48 hrs by immunoblot analysis (reference value: 0.33 to 0.81); format: cell-based
Homo sapiens [22] = species on record: Homo sapiens; assay: Inhibition of Akt in human MDA-MB-231 cells assessed as ratio of phosphorylated GSK-3beta to GAPDH expression level at 2 uM after 48 hrs by immunoblot analysis (reference value: 0.14 to 1.50); format: cell-based
MDA-MB-231 [23] = assay: Ratio of Bcl-2 to Bax gene expression in human MDA-MB-231 cells at 5 uM after 24 hrs by RT-PCR method (reference value: 0.03); format: functional
MDA-MB-231 [24] = assay: Inhibition of Akt phosphorylation in human MDA-MB-231 cells after 48 hrs by immunoblot analysis; format: cell-based
MDA-MB-231 [25] = assay: Effect on p21 mRNA expression in human MDA-MB-231 cells assessed as ratio of p21 to GAPDH expression level at 5 uM after 24 hrs by RT-PCR method (reference value: 0.02); format: functional
[26] = Cell cycle arrest in human MCF7 cells assessed as accumulation at S phase at 5 uM after 24 hrs by propidium iodide staining based flow cytometry (reference value: 4.23%); format: functional
MCF7 [27] = assay: Induction of apoptosis in human MCF7 cells assessed as late apoptotic cells at 5 uM after 24 hrs by Annexin V-FITC/propidium iodide staining based flow cytometry (reference value: 2.3%); format: functional
Homo sapiens [28] = species on record: Homo sapiens; assay: Inhibition of Akt in human MDA-MB-231 cells assessed as ratio of phosphorylated GSK-3beta to GAPDH expression level at 10 uM after 48 hrs by immunoblot analysis (reference value: 0.14 to 1.50); format: cell-based
MCF7 [29] = assay: Induction of apoptosis in human MCF7 cells assessed as early apoptotic cells at 5 uM after 24 hrs by Annexin V-FITC/propidium iodide staining based flow cytometry (reference value: 1.6%); format: functional
MDA-MB-231 [30] = assay: Induction of apoptosis in human MDA-MB-231 cells assessed as necrotic cells at 5 uM after 24 hrs by Annexin V-FITC/propidium iodide staining based flow cytometry (reference value: 1.3%); format: functional
MDA-MB-231 [31] = assay: Induction of apoptosis in human MDA-MB-231 cells assessed as early apoptotic cells at 5 uM after 24 hrs by Annexin V-FITC/propidium iodide staining based flow cytometry (reference value: 0.5%); format: functional
Homo sapiens [32] = species on record: Homo sapiens; assay: Inhibition of Akt in human MDA-MB-231 cells assessed as ratio of phosphorylated GSK-3beta to GAPDH expression level at 5 uM after 48 hrs by immunoblot analysis (reference value: 0.14 to 1.50); format: cell-based
Homo sapiens [33] = species on record: Homo sapiens; assay: Inhibition of Akt in human MDA-MB-231 cells assessed as ratio of phosphorylated Akt to GAPDH expression level at 10 uM after 48 hrs by immunoblot analysis (reference value: 0.33 to 0.81); format: cell-based
[34] = Homo sapiens, Epithelial cell, 48 h, read-out: IC50

With `CCOC(=O)/C(=C/c1ccccc1)CN1C(=O)[C@@H](OC)[C@H]1c1ccc(F)cc1` the IC50 [1] was 18.8 µM, the IC50 [2] was 14 µM and the IC50 ([3]; epithelial cell) was “Non-Toxic”.

For `CO[C@@H]1C(=O)N(C/C(C#N)=C/c2ccccc2)[C@@H]1c1ccccc1Br`, the IC50 [1] was 10.8 µM, the IC50 [2] was 10.7 µM and the IC50 ([3]; epithelial cell) was “Non-Toxic”.

With `CO[C@@H]1C(=O)N(C/C(C#N)=C/c2ccccc2)[C@@H]1c1cccc2ccccc12` the IC50 [1] was 11.7 µM and the IC50 ([3]; epithelial cell) was “Non-Toxic”.

In the case of `COC(=O)/C(=C/c1ccccc1)CN1C(=O)[C@@H](OC)[C@H]1c1cccc(C(F)(F)F)c1`, the IC50 [2] is reported as 18.2 µM and the IC50 [3, 34] is reported as 71.8 µM.

In the case of `COC(=O)/C(=C/c1ccccc1)CN1C(=O)[C@@H](OC)[C@H]1c1cccc(Cl)c1`, the IC50 [1] is reported as 25.1 µM and the IC50 ([3]; epithelial cell) is reported as “Non-Toxic”.

`COC(=O)/C(=C/c1ccccc1)CN1C(=O)[C@@H](OC)[C@H]1c1ccc(Cl)cc1Cl` gave an IC50 [2] of 19 µM and an IC50 [3, 34] of 70 µM.

For `COC(=O)/C(=C/c1ccccc1)CN1C(=O)[C@@H](OC)[C@H]1c1ccc(OC)cc1`, the IC50 [1] was 11.6 µM, the IC50 [2] was 14 µM and the IC50 ([3]; epithelial cell) was “Non-Toxic”.

For `CO[C@@H]1C(=O)N(C/C(C#N)=C/c2ccccc2)[C@@H]1c1ccc(Cl)cc1Cl`, the IC50 [1] was 31.9 µM, the IC50 [2] was 17 µM and the IC50 [3, 34] was over 100 µM.

In the case of `COC[C@H]1OC(=O)c2coc3c2[C@@]1(C)C1=C(C3=O)[C@@H]2CCC(=O)[C@@]2(C)C[C@H]1OC(C)=O`, the Ratio (Homo sapiens [4]) is reported as 0.61 and the Ratio (Homo sapiens [5]) is reported as 0.01.

`CO[C@@H]1C(=O)N(C/C(C#N)=C/c2ccccc2)[C@@H]1c1ccc(C)cc1` showed a Ratio (MDA-MB-231 [6]) of 0.51, a Ratio (MDA-MB-231 [7]) of 0.22 and an Activity [8] of 2.22%. For the same molecule, the inhibition (MDA-MB-231 [9]) was “Dose-dependent effect”, the Ratio (MDA-MB-231 [10]) was 0.17 and the Activity (MCF7 [11]) was 1.9%. It also gave a selectivity ratio [12] of 10, a Ratio (Homo sapiens [13]) of 0.09 and an Activity [14] of 83%. It also gave a Ratio (MDA-MB-231 [15]) of 0.16, a Ratio (MDA-MB-231 [16]) of 0.64 and an Activity (MDA-MB-231 [17]) of 4.1%. The Activity [18] was 9.43%, the Ratio (MDA-MB-231 [19]) was 0.24 and the Ratio (MDA-MB-231 [20]) was 0.32. For the same molecule, the Ratio (Homo sapiens [21]) was 0.35, the IC50 [1] was 9.99 µM and the Ratio (Homo sapiens [22]) was 0.04. The IC50 [2] was 9.27 µM, the Ratio (MDA-MB-231 [23]) was 0.02 and the inhibition (MDA-MB-231 [24]) was “Dose-dependent effect”. For the same molecule, the Ratio (MDA-MB-231 [25]) was 0.08, the Activity [26] was 4.15% and the Activity (MCF7 [27]) was 12.8%. It also gave a Ratio (Homo sapiens [28]) of 0.17, an Activity (MCF7 [29]) of 9% and an Activity (MDA-MB-231 [30]) of 1.4%. The Activity (MDA-MB-231 [31]) was 1.3%, the Ratio (Homo sapiens [32]) was 0.15 and the Ratio (Homo sapiens [33]) was 0.06. For the same molecule, the IC50 ([3]; epithelial cell) was “Non-Toxic”.

For `CCOC(=O)/C(=C/c1ccccc1)CN1C(=O)[C@@H](OC)[C@H]1c1cccc([N+](=O)[O-])c1`, the IC50 [1] was 19.9 µM, the IC50 [2] was 14.4 µM and the IC50 ([3]; epithelial cell) was “Non-Toxic”.

For `COC(=O)/C(=C/c1ccccc1)CN1C(=O)[C@@H](OC)[C@H]1c1ccc(F)cc1`, the IC50 [1] was 15.6 µM, the IC50 [2] was 21.8 µM and the IC50 [3, 34] was 27.9 µM.
